Experimental data taken from patent US7902361B2, “Pyrimidin-4-yl-3, 4-thione compounds and their use in therapy” (Cyclacel Limited, priority 2003, dated 2011).

How the values were obtained:
Type in all cases: biochemical
[1] = target: CDK9/cyclin T1 (Homo sapiens, UniProt P50750); assay: Kinase assay CDK9/cyclin T1; conditions: Ki calculated (Cheng-Prusoff) from experimentally determined IC50 and Km,ATP; read-out: Kinase Inhibition Ki CDK9 - cyclin T1
Method: (§1) The compounds from the examples above were investigated for their ability to inhibit the enzymatic activity of various protein kinases. This was achieved by measurement of incorporation of radioactive phosphate from ATP into appropriate polypeptide substrates. Recombinant protein kinases and kinase complexes were produced or obtained commercially. Assays were performed using 96-well plates and appropriate assay buffers (typically 25 mM β-glycerophosphate, 20 mM MOPS, 5 mM EGTA, 1 mM DTT, 1 mM […], pH 7.4), into which were added 2-4 μg of active enzyme with appropriate substrates. The reactions were initiated by addition of Mg/ATP mix (15 mM MgCl2+100 μM ATP with 30-50 kBq per well of [γ-^32P]-ATP) and mixtures incubated as required at 30° C. Reactions were stopped on ice, followed by filtration through p81 filterplates or GF/C filterplates (Whatman Polyfiltronics, Kent, UK). After washing 3 times with 75 mM aq orthophosphoric acid, plates were dried, scintillant added and incorporated radioactivity measured in a scintillation counter (TopCount, Packard Instruments, Pangbourne, Berks, UK). Compounds for kinase assay were made up as 10 mM stocks in DMSO and diluted into 10% DMSO in assay buffer.

[2] = target: CDK4/cyclin D1 (Homo sapiens, UniProt P11802); assay: Kinase assay CDK4/cyclin D1; conditions: Ki calculated (Cheng-Prusoff) from experimentally determined IC50 and Km,ATP; read-out: Kinase Inhibition Ki CDK4 - cyclin D1
Sequence of CDK4/cyclin D1 (P11802 whole entry, species assumed): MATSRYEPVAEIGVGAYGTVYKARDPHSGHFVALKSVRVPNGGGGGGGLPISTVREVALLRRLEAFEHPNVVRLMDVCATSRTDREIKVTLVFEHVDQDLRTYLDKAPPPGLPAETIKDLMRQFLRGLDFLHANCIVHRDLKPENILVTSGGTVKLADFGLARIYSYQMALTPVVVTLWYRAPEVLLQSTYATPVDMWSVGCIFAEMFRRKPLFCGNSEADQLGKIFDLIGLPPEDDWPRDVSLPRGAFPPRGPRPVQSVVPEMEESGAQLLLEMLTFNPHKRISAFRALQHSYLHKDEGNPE
Sequence of CDK4/cyclin D1 (P24385 whole entry partner, species assumed): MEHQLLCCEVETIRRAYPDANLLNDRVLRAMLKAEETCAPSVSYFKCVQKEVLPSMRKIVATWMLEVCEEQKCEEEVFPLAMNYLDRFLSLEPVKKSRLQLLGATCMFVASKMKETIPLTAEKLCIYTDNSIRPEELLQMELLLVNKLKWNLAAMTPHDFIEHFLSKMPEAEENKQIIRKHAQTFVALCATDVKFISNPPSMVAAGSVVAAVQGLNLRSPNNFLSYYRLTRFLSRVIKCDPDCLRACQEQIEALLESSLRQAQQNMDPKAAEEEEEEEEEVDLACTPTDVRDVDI
Method: as §1

[3] = target: CDK2/cyclin E (Homo sapiens, UniProt P24941); assay: Kinase assay CDK2/cyclin E; conditions: Ki calculated (Cheng-Prusoff) from experimentally determined IC50 and Km,ATP; read-out: Kinase Inhibition Ki CDK2 - cyclin E
Method: as §1, with “The reactions were initiated by addition of Mg/ATP mix (15 mM MgCl2+100 μM ATP with 30-50 kBq per well of [γ-^32P]-ATP) and mixtures incubated as required at 30° C.” left out

[4] = target: CDK1/cyclin B (Homo sapiens, UniProt P06493); assay: Kinase assay CDK1/cyclin B (radioactive phosphate incorporation); conditions: Ki calculated (Cheng-Prusoff) from experimentally determined IC50 and Km,ATP; read-out: Kinase Inhibition Ki CDK1 - cyclin B
Sequence of CDK1/cyclin B (P06493 whole entry, species assumed): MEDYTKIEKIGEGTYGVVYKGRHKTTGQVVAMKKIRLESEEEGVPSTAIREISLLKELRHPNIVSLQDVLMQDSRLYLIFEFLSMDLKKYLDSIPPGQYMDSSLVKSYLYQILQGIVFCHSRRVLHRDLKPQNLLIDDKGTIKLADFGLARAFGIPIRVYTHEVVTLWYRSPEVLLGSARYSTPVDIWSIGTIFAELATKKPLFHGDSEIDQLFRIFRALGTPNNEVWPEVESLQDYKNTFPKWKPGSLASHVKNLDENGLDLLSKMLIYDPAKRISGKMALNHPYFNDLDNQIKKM
Sequence of CDK1/cyclin B (P14635 whole entry partner, species assumed): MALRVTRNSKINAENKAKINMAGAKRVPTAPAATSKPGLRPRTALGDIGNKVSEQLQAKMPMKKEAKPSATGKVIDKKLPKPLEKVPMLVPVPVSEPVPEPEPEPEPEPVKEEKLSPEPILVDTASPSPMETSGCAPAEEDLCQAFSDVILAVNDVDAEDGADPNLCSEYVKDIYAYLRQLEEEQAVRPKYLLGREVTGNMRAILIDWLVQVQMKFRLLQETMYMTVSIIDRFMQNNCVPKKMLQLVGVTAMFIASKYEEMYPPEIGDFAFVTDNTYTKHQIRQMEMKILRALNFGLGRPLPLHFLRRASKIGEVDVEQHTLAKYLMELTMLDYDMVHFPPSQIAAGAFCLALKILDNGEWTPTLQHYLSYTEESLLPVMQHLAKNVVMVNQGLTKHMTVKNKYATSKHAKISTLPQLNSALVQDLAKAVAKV
Method: as §1, with “The reactions were initiated by addition of Mg/ATP mix (15 mM MgCl2+100 μM ATP with 30-50 kBq per well of [γ-^32P]-ATP) and mixtures incubated as required at 30° C.” left out

[5] = target: CDK7/cyclin H (Homo sapiens, UniProt P50613); assay: Kinase assay CDK7/cyclin H; conditions: Ki calculated (Cheng-Prusoff) from experimentally determined IC50 and Km,ATP; read-out: Kinase Inhibition Ki CDK7 - cyclin H
Sequence of CDK7/cyclin H (P50613 whole entry, species assumed): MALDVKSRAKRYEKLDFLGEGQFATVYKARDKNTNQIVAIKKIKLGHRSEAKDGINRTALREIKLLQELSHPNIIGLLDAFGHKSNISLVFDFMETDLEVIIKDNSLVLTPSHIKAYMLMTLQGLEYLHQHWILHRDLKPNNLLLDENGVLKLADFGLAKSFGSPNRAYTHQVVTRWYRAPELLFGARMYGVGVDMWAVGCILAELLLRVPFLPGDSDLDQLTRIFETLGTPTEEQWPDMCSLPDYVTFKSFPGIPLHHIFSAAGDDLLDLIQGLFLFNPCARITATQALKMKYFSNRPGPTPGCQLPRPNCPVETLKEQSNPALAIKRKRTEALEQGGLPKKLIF
Sequence of CDK7/cyclin H (P51946 whole entry partner, species assumed): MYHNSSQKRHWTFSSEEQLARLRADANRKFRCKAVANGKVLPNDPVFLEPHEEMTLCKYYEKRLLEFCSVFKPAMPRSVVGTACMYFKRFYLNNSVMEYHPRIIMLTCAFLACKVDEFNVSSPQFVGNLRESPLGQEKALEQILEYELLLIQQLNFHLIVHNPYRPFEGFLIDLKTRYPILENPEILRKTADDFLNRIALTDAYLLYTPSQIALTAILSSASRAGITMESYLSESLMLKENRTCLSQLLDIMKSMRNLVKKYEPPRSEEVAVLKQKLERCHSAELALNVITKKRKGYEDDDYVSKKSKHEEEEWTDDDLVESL
Method: as §1

[6] = target: CDK2/cyclin A (Homo sapiens, UniProt P24941); assay: Kinase assay CDK2/cyclin A; conditions: Ki calculated (Cheng-Prusoff) from experimentally determined IC50 and Km,ATP; read-out: Kinase Inhibition Ki CDK2 - cyclin A
Method: as §1, with “The reactions were initiated by addition of Mg/ATP mix (15 mM MgCl2+100 μM ATP with 30-50 kBq per well of [γ-^32P]-ATP) and mixtures incubated as required at 30° C.” left out

Sequence of CDK9/cyclin T1 (P50750 whole entry, species assumed): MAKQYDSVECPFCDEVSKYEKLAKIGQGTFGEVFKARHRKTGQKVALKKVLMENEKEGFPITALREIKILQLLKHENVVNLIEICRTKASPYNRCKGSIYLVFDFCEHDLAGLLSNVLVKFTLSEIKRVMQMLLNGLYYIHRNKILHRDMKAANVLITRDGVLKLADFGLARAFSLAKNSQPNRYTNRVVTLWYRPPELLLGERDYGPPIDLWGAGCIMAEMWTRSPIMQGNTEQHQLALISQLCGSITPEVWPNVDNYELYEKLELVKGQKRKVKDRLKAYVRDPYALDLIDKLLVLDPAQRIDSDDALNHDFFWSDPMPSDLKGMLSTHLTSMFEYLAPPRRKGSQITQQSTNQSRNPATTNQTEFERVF
Sequence of CDK9/cyclin T1 (O60563 whole entry partner, species assumed): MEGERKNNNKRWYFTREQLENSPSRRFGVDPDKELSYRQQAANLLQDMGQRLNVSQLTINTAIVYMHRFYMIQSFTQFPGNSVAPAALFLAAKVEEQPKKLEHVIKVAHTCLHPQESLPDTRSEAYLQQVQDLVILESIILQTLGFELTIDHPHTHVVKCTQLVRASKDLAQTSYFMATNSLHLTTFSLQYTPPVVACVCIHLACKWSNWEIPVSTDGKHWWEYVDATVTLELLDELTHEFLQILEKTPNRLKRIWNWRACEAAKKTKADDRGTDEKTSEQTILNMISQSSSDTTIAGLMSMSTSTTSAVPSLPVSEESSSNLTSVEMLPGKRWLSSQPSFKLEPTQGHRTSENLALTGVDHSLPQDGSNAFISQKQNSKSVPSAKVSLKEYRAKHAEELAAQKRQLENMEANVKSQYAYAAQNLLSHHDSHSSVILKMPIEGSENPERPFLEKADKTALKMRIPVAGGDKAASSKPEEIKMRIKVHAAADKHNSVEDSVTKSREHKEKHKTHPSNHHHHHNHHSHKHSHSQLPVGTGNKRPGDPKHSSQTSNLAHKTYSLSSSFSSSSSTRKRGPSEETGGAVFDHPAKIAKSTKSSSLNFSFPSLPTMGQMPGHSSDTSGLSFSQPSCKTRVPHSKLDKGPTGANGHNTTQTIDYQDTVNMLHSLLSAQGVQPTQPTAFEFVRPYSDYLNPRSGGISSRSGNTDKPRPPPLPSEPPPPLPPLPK

| SMILES | Ki [1] [nM] | Ki [2] [nM] | Ki [3] [nM] | Ki [4] [nM] | Ki [5] [nM] | Ki [6] [nM] |
| --- | --- | --- | --- | --- | --- | --- |
| Cc1c(-c2ccnc(Nc3ccc(O)cc3)n2)sc(=O)n1C [Compound 3, 5-[2-(4-Hydroxy-phenylamino)-pyrimidin-4-yl]-3,4-dimethyl-3H-thiazol-2-one] | 0.7 | – | – | – | – | – |
| Cc1c(-c2ccnc(Nc3ccc(Cl)cc3)n2)sc(=O)n1C [Compound 4, 5-[2-(4-Chloro-phenylamino)-pyrimidin-4-yl]-3,4-dimethyl-3H-thiazol-2-one] | – | 1600 | 130 | 460 | 4100 | 200 |
| COc1ccc(Nc2nccc(-c3sc(=O)n(C)c3C)n2)cc1 [Compound 6, 5-[2-(4-Methoxy-phenylamino)-pyrimidin-4-yl]-3,4-dimethyl-3H-thiazol-2-one] | – | 570 | 380 | 260 | 920 | 190 |
| Cc1c(-c2ccnc(Nc3cccc(O)c3)n2)sc(=O)n1C [Compound 7, 5-[2-(3-Hydroxy-phenylamino)-pyrimidin-4-yl]-3,4-dimethyl-3H-thiazol-2-one] | – | 540 | 43 | 130 | 620 | 25 |
| Cc1c(-c2ccnc(Nc3ccc(N(C)C)cc3)n2)sc(=O)n1C [Compound 8, 5-[2-(4-Dimethylamino-phenylamino)-pyrimidin-4-yl]-3,4-dimethyl-3H-thiazol-2-one] | 41 | 530 | 750 | 750 | 860 | 200 |
| Cc1c(-c2ccnc(Nc3ccc(N4CCOCC4)cc3)n2)sc(=O)n1C [Compound 9, 3,4-Dimethyl-5-[2-(4-morpholin-4-yl-phenylamino)-pyrimidin-4-yl]-3H-thiazol-2-one] | – | 670 | 590 | 5200 | 1300 | 170 |
| Cc1c(-c2ccnc(Nc3ccc(F)c([N+](=O)[O-])c3)n2)sc(=O)n1C [Compound 10, 5-[2-(4-Fluoro-3-nitro-phenylamino)-pyrimidin-4-yl]-3,4-dimethyl-3H-thiazol-2-one] | – | 990 | 130 | 280 | 520 | 21 |
| Cc1cc(Nc2nccc(-c3sc(=O)n(C)c3C)n2)ccc1F [Compound 12, 5-[2-(4-Fluoro-3-methyl-phenylamino)-pyrimidin-4-yl]-3,4-dimethyl-3H-thiazol-2-one] | 24 | – | 66 | 380 | – | – |
| Cc1c(-c2ccnc(Nc3ccc(N4CCN(C)CC4)cc3)n2)sc(=O)n1C [Compound 13, 3,4-Dimethyl-5-{2-[4-(4-methyl-piperazin-1-yl)-phenylamino]-pyrimidin-4-yl}-3H-thiazol-2-one] | 93 | 270 | 530 | 1500 | 170 | 230 |
| Cc1ccc(Nc2nccc(-c3sc(=O)n(C)c3C)n2)cc1I [Compound 14, 5-[2-(3-Iodo-4-methyl-phenylamino)-pyrimidin-4-yl]-3,4-dimethyl-3H-thiazol-2-one] | 35 | 2100 | 350 | 700 | – | 840 |
| CC(=O)N1CCN(c2ccc(Nc3nccc(-c4sc(=O)n(C)c4C)n3)cc2)CC1 [Compound 17, 5-{2-[4-(4-Acetyl-piperazin-1-yl)-phenylamino]-pyrimidin-4-yl}-3,4-dimethyl-3H-thiazol-2-one] | 77 | 190 | 260 | 6900 | 510 | 180 |
| Cc1c(-c2ccnc(Nc3ccc(Cl)c(CO)c3)n2)sc(=O)n1C [Compound 18, 5-[2-(4-Chloro-3-hydroxymethyl-phenylamino)-pyrimidin-4-yl]-3,4-dimethyl-3H-thiazol-2-one] | 1.2 | 170 | 28 | 22 | 28 | 59 |
| Cc1c(-c2ccnc(Nc3cccc(C(F)(F)F)c3)n2)sc(=O)n1C [Compound 19, 3,4-Dimethyl-5-[2-(3-trifluoromethyl-phenylamino)-pyrimidin-4-yl]-3H-thiazol-2-one] | 1800 | – | 1700 | – | 5100 | – |
| Cc1ccc([N+](=O)[O-])cc1Nc1nccc(-c2sc(=O)n(C)c2C)n1 [Compound 20, 3,4-Dimethyl-5-[2-(2-methyl-5-nitro-phenylamino)-pyrimidin-4-yl]-3H-thiazol-2-one] | 85 | – | 6500 | – | 910 | – |
| CCn1c(C)c(-c2ccnc(Nc3ccc(Cl)c(C(=O)O)c3)n2)sc1=O [Compound 24, 2-Chloro-5-[4-(3-ethyl-4-methyl-2-oxo-2,3-dihydro-thiazol-5-yl)-pyrimidin-2-ylamino]-benzoic acid] | 370 | 24000 | 1900 | 6300 | – | 1100 |
| CCn1c(C)c(-c2ccnc(Nc3ccc(Cl)c(C(=O)OC)c3)n2)sc1=O [Compound 25, 2-Chloro-5-[4-(3-ethyl-4-methyl-2-oxo-2,3-dihydro-thiazol-5-yl)-pyrimidin-2-ylamino]-benzoic acid methyl ester] | 4400 | – | 2700 | – | – | 23000 |
| CCn1c(C)c(-c2ccnc(Nc3ccc(N(C)C)c([N+](=O)[O-])c3)n2)sc1=O [Compound 29, 5-[2-(4-Dimethylamino-3-nitro-phenylamino)-pyrimidin-4-yl]-3-ethyl-4-methyl-3H-thiazol-2-one] | 7 | 170 | 33 | – | 43 | – |
| Cc1c(-c2ccnc(Nc3ccc(Cl)cc3)n2)sc(=O)n1CCC(C)C [Compound 31, 5-[2-(4-Chloro-phenylamino)-pyrimidin-4-yl]-4-methyl-3-(3-methyl-butyl)-3H-thiazol-2-one] | – | – | – | – | 430 | – |
| Cc1c(-c2ccnc(Nc3ccc(Cl)nc3)n2)sc(=O)n1C [Compound 32, 5-[2-(6-Chloro-pyridin-3-ylamino)-pyrimidin-4-yl]-3,4-dimethyl-3H-thiazol-2-one] | 6.5 | – | 68 | 500 | – | – |
| Cc1c(-c2ccnc(Nc3ccc(Cl)nc3)n2)sc(=O)n1CCC(C)C [Compound 34, 5-[2-(6-Chloro-pyridin-3-ylamino)-pyrimidin-4-yl]-4-methyl-3-(3-methyl-butyl)-3H-thiazol-2-one] | 1800 | – | 1100 | 3500 | 230 | 600 |
| Cc1c(-c2ccnc(Nc3cc([N+](=O)[O-])ccc3N(C)C)n2)sc(=O)n1C [Compound 37, 5-[2-(2-Dimethylamino-5-nitro-phenylamino)-pyrimidin-4-yl]-3,4-dimethyl-3H-thiazol-2-one] | – | – | 8600 | 9900 | – | – |
| CCn1c(C)c(-c2ccnc(Nc3cccc(OC)c3)n2)sc1=O [Compound 50, 3-Ethyl-5-[2-(3-methoxy-phenylamino)-pyrimidin-4-yl]-4-methyl-3H-thiazol-2-one] | 80 | – | – | – | 140 | – |
| Cc1c(-c2ccnc(NCc3cccnc3)n2)sc(=O)n1C [Compound 83, 3,4-Dimethyl-5-{2-[(pyridin-3-ylmethyl)-amino]-pyrimidin-4-yl}-3H-thiazol-2-one] | 320 | 1300 | 1600 | – | – | – |
| Cc1c(-c2ccnc(N)n2)sc(=O)n1C [Compound 84, 5-(2-Amino-pyrimidin-4-yl)-3,4-dimethyl-3H-thiazol-2-one] | 130 | – | – | – | – | – |
| CC(=O)Nc1nccc(-c2sc(=O)n(C)c2C)n1 [Compound 85, N-[4-(3,4-Dimethyl-2-oxo-2,3-dihydro-thiazol-5-yl)-pyrimidin-2-yl]-acetamide] | 290 | – | – | – | – | – |
